The source of these data is patent publication US10980824B2, “Pharmaceutical composition comprising quercetin-3-O-β-D-xylopyranoside for preventing or treating liver disease” (Hongcheon Institute of Medical Herb, priority 2016, dated 2021).

Common to all, as to type: in vivo, C57BL/6N mice
The test system of one assay is IL-1β. As to the kind of experiment: mRNA level of IL-1β by RT-PCR. Particulars: alcohol+compound group vs alcohol-fed group (FIG. 14). An excerpt: Monocyte chemoattractant protein 1 (MCP-1), called chemokine ligand 2 (CCL2), is one of the key chemokines that regulate pathogeneses of several diseases caused by monocyte infiltration. Meanwhile, interleukin 1 beta (IL1β), also known as a leukocytic endogenous mediator and a lymphocyte activating factor, is a member of the interleukin 1 family of cytokines. The cytokines are produced by activated macrophages at a damaged region of tissue.
Specifically, mRNA levels of MCP-1 and IL-1β were analyzed by using RT-PCR as described above in Example 2-8.

For assay [1], the system named is alcoholic steatosis-induced mice. As to the kind of experiment: Progression of hepatic fibrosis in reticular fibers by Gomori Reticulum staining. Particulars: 1 mg/kg oral 10 days; EtOH+B vs EtOH-fed (FIG. 9). As for the experimental part: (§1) 8-week-old C57BL/6N mice were purchased from DAEHAN BIOLINK to be used for efficacy evaluation and quarantined and acclimated in a vivarium of HONGCHEON INSTITUTE OF MEDICAL HERB for 7 days (relative temperature: 23±2° C., relative humidity: 50±5%, and a 12 h light-dark cycle) prior to the start of experimentation. Among them, 18 male mice with no abnormal symptoms were selected and used.
During a liquid diet adaptation period, a control group was restrictedly fed with a Lieber-DeCarli'82 control liquid diet (F1259SP, Bio-serv), and an alcohol-fed group was restrictedly fed with a Lieber-DeCarli'82 ethanol liquid diet (F1258SP, Bio-serv) using a Liquid diet feeding tube (9019, Bio-serv), and the diets were replaced with new ones at a preset time between 3 P.M. and 5 P.M.
After 5 days of the liquid diet adaptation period, the mice were orally administered with 1 mg/kg of quercetin-3-O-β-D-xylopyranoside (test substance) for 10 days and fed with a 5% alcohol liquid diet. At 11th day, between 7 A.M. and 9 A.M., a group not fed with alcohol (hereinafter referred to as Pair-fed group) was orally administered with a 45% maltose dextrin solution, and a group fed with a 5% liquid diet (hereinafter referred to as EtOH-fed) and a group administered with a test substance (hereinafter referred to as EtOH+B group) were orally fed with 31.5% ethanol. […]

The subject of a further assay is Fabp gene. Description: Real-time PCR of lipid metabolism gene expression in liver: Fabp. Particulars: liver mRNA, relative to Pair-fed group; EtOH+B group, 1 mg/kg oral 10 days (FIG. 11). As for the experimental part: as §1
(§2) During a liquid diet adaptation period, a control group was restrictedly fed with a Lieber-DeCarli'82 control liquid diet (F1259SP, Bio-serv), and an alcohol-fed group was restrictedly fed with a Lieber-DeCarli'82 ethanol liquid diet (F1258SP, Bio-serv) using a Liquid diet feeding tube (9019, Bio-serv), and the diets were replaced with new ones at a preset time between 3 P.M. and 5 P.M. […]
(§3) Real-time quantitative PCR was performed using a 7500 Real-time Thermal Cycler (Applied Biosystems, USA) with SYBR Green (Applied Biosystems, USA) to measure gene expression. […]
(§4) PCR amplification steps as described below were repeated for up to 40 cycles. […] Values were recorded after extension at every cycle.
(§5) After completion of all cycles, melting curve analysis was carried out to verify specificity of the primers. The results were analyzed using the One step system software v2.1 provided by Applied Biosystems.
On the technique in general: In qPCR the cycle at which signal appears reflects the starting amount.

Another assay has as its system Cd36 gene. As to the kind of experiment: Real-time PCR of lipid metabolism gene expression in liver: Cd36. Particulars: liver mRNA, relative to Pair-fed group; EtOH+B group, 1 mg/kg oral 10 days (FIG. 11). As for the experimental part:
as §1, §2, §3, §4, §5

Assay [2] concerns alcoholic steatosis-induced mice. As to the kind of experiment: Apoptosis in liver tissue by TUNEL assay. Particulars: alcohol+compound group vs group fed with only alcohol (FIG. 15). As for the experimental part:
DNA fragmentation characteristics of apoptosis were examined using a terminal deoxynucleotidyl transferase (TdT)-FragEL kit (Oncogene Research Products, San Diego, Calif.).
First, a tissue sample fixed in 4% paraformaldehyde was embedded in paraffin and sliced into 5 μm sections. Replicated sections were rehydrated and permeabilized with proteinase K (20 μg/mL) at 25° C. for 20 minutes. Subsequently, the sections were covered with 3% H2O2 for 5 minutes to inactivate endogenous peroxidase. After the sample was incubated in a TdT buffer solution (200 mM sodium-cacodylate, 30 mM Tris, 0.3 mg/mL BSA, 0.75 mM CoCl2, pH 6.6) for 5 minutes, slides were covered with TdT and biotinylated dUTP and incubated in a humidified chamber at 37° C. for 1.5 hours. Negative controls were incubated with biotinylated dUTP in a TdT buffer solution without enzyme. Reactions were terminated by adding a stop buffer (0.5 M EDTA, pH 8.0) thereto at room temperature for 5 minutes. After blocking with 4% BSA, the slides were incubated with a streptavidin-horseradish peroxidase conjugate for 30 minutes. Subsequently, the sections were incubated in DAB at room temperature for 12 minutes and counterstained with methyl green. Apoptotic cells were identified by stained properties and morphological criteria (cell contraction, chromatin condensation and/or margination, and apoptotic bodies).

In a further assay the test system is CPT-1. Description: Western blot of CPT-1 in liver tissue. Particulars: compound group vs alcohol-fed group. As for the experimental part:
Expression of p-AMPKα, p-ACC, and CPT-1, which regulate intrahepatic lipid metabolism, was analyzed by western blot analysis to understand the mechanism involved in pathogenesis of alcoholic steatosis in detail. The specific western blot analysis method is as follows.
First, a mouse liver homogenate was prepared by using a RIPA buffer solution including a protease and tyrosine phosphatase inhibitor cocktail (Sigma). Protein concentrations of lysates were determined using a Bicinchoninic (BCA) Protein Assay Kit (Thermo Scientific, IL, USA) according to the manufacturer's instructions. Isolated soluble proteins ([…]) were separated on an 8% to 15% SDS-polyacrylamide gel. The separated proteins were electroblotted on a nitrocellulose transfer membrane (Bio-Rad, Hercules, Calif., USA). The membrane was incubated with 5% non-fat dry milk for 1 hour and then probed for antigens using antibodies diluted to 1:1,000, and was incubated with anti-pAMPKα, anti-AMPKα, anti-PACC, anti-ACC, anti-CYP2E1, anti-CPT1a (Cell Signaling Technology), and anti-β-actin (Santa Cruz Biotechnology) at 4° C. for 18 hours. […] Band density was measured using ImageJ (National Institutes of Health, Bethesda, Md., USA) and expressed as a multiple relative to β-actin.

SMILES strings stand for the structures.

`O=c1c(O[C@@H]2OC[C@@H](O)[C@H](O)[C@H]2O)c(-c2ccc(O)c(O)c2)oc2cc(O)cc(O)c12` [quercetin-3-O-β-D-xylopyranoside]: the “mRNA level of IL-1β” value with IL-1β is reported as “significantly reduced”. In addition, the “progression of hepatic fibrosis in reticular fibers” value in assay [1] is given as “suppressed”. For the same compound, the “expression level of the Fabp gene” value in the assay on Fabp gene is recorded as 0.7 times. In addition, in the assay with Cd36 gene, the “expression level of the Cd36 gene” value is reported as 0.98 times. The “degree of apoptosis in liver tissue” value in assay [2] is reported as “significantly reduced”. For the same compound, the CPT-1 level result in the assay with CPT-1 is on record as “significantly restored”.
